# What was measured:
# Type in all cases: in vivo
# [1] = test system: Johnsongrass (Sorghum halepense, SORHA); assay: Pre-emerge greenhouse herbicide test, phytotoxicity rating; conditions: 14 days after application, rating scale 0-100
# Method in brief: (§1)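 Seeds sown in sandy loam one day before track-sprayer application of acetone solutions at 125–1000 g ai/ha (187 l/ha), then surface-watered to incorporate and bottom-watered. Injury scored visually at 14 days on a 0–100 scale (0 no damage, 100 complete death).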
# [2] = test system: barnyardgrass (Echinochloa crusgalli, ECHCG); assay: as above; conditions: 14 days after application, rating scale 0-100
# Method in brief: as §1
# [3] = test system: common ragweed (Ambrosia artemisiifolia L., AMBEL); assay: as above; conditions: 14 days after application, rating scale 0-100
# Method in brief: as §1
# [4] = test system: green foxtail (Setaria viridis, SETVI); assay: as above; conditions: 14 days after application, rating scale 0-100
# Method in brief: as §1
# [5] = test system: ivyleaf morningglory (Ipomoea hederacea, IPOHE); assay: as above; conditions: 14 days after application, rating scale 0-100
# Method in brief: as §1
# [6] = test system: lambsquarters (Chenopodium album, CHEAL); assay: as above; conditions: 14 days after application, rating scale 0-100
# Method in brief: as §1
# [7] = test system: large crabgrass (Digitaria sanguinalis, DIGSA); assay: as above; conditions: 14 days after application, rating scale 0-100
# Method in brief: as §1
# [8] = test system: redroot pigweed (Amaranthus retroflexus, AMARE); assay: as above; conditions: 14 days after application, rating scale 0-100
# Method in brief: as §1
# [9] = test system: sicklepod (Cassia obtusifolia, CASOB); assay: as above; conditions: 14 days after application, rating scale 0-100
# Method in brief: as §1
# [10] = test system: velvetleaf (Abutilon theophrasti, ABUTH); assay: as above; conditions: 14 days after application, rating scale 0-100
# Method in brief: as §1
# [11] = test system: field corn (Zea mays L., var. Dekalb 535, CORN); assay: Pre-emerge greenhouse test, crop damage rating; conditions: 14 days after application, rating scale 0-100
# Method in brief: as §1
# [12] = test system: upland rice (Oryza sp., var.Tebonnet, RICE); assay: Pre-emerge greenhouse test, crop damage rating; conditions: 14 days after application, rating scale 0-100
# Method in brief: as §1
# [13] = test system: soybean (Glycine max L., var. Pella 86, SOY); assay: Pre-emerge greenhouse test, crop damage rating; conditions: 14 days after application, rating scale 0-100
# Method in brief: as §1
# [14] = test system: common ragweed (Ambrosia artemisiifolia L., AMBEL); assay: Post-emerge greenhouse herbicide test, phytotoxicity rating; conditions: 14 days after application
# Method in brief: (§2)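 Plants at the 2-3 leaf stage, sown 8-21 days earlier, were track-sprayed post-emergence with compound in acetone plus 0.25% v/v non-ionic surfactant at 63-1000 g ai/ha (187 l/ha). Damage was rated at 14 days on a 0-100 scale (0 none, 100 all plants dead), for both crop injury and weed control.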
# [15] = test system: Johnsongrass (Sorghum halepense, SORHA); assay: as above; conditions: 14 days after application
# Method in brief: as §2
# [16] = test system: barnyardgrass (Echinochloa crusgalli, ECHCG); assay: as above; conditions: 14 days after application
# Method in brief: as §2
# [17] = test system: green foxtail (Setaria viridis, SETVI); assay: as above; conditions: 14 days after application
# Method in brief: as §2
# [18] = test system: ivyleaf morningglory (Ipomoea hederacea, IPOHE); assay: as above; conditions: 14 days after application
# Method in brief: as §2
# [19] = test system: lambsquarters (Chenopodium album, CHEAL); assay: as above; conditions: 14 days after application
# Method in brief: as §2
# [20] = test system: large crabgrass (Digitaria sanguinalis, DIGSA); assay: as above; conditions: 14 days after application
# Method in brief: as §2
# [21] = test system: redroot pigweed (Amaranthus retroflexus, AMARE); assay: as above; conditions: 14 days after application
# Method in brief: as §2
# [22] = test system: sicklepod (Cassia obtusifolia, CASOB); assay: as above; conditions: 14 days after application
# Method in brief: as §2
# [23] = test system: velvetleaf (Abutilon theophrasti, ABUTH); assay: as above; conditions: 14 days after application
# Method in brief: as §2
# [24] = test system: field corn (Zea mays L., var. Dekalb 535, CORN); assay: Post-emerge greenhouse test, crop damage rating; conditions: 14 days after application
# Method in brief: as §2
# [25] = test system: upland rice (Oryza sp., var.Tebonnet, RICE); assay: Post-emerge greenhouse test, crop damage rating; conditions: 14 days after application
# Method in brief: as §2
# [26] = test system: soybean (Glycine max L., var. Pella 86, SOY); assay: Post-emerge greenhouse test, crop damage rating; conditions: 14 days after application
# Method in brief: as §2
compound,measurement,setting,value
"Cc1nn(-c2cc(Oc3ncccn3)c(Cl)cc2F)c(=O)n1C(F)F [Compound 3-1, 1-[4-chloro-2-fluoro-5-(2-pyrimidyloxy)phenyl]-4-difluoromethyl-3-methyl-1,4-dihydro-1,2,4-triazolin-5-one]",phytotoxicity rating SORHA,[1]; 125 g ai/ha,100
same,phytotoxicity rating SORHA,[1]; 500 g ai/ha,100
same,phytotoxicity rating ECHCG,[2]; 125 g ai/ha,100
same,phytotoxicity rating ECHCG,[2]; 500 g ai/ha,100
same,phytotoxicity rating AMBEL,[3]; 125 g ai/ha,100
same,phytotoxicity rating AMBEL,[3]; 500 g ai/ha,100
same,phytotoxicity rating SETVI,[4]; 125 g ai/ha,100
same,phytotoxicity rating SETVI,[4]; 500 g ai/ha,100
same,phytotoxicity rating IPOHE,[5]; 125 g ai/ha,100
same,phytotoxicity rating IPOHE,[5]; 500 g ai/ha,100
same,phytotoxicity rating CHEAL,[6]; 125 g ai/ha,100
same,phytotoxicity rating CHEAL,[6]; 500 g ai/ha,100
same,phytotoxicity rating DIGSA,[7]; 125 g ai/ha,100
same,phytotoxicity rating DIGSA,[7]; 500 g ai/ha,100
same,phytotoxicity rating AMARE,[8]; 125 g ai/ha,100
same,phytotoxicity rating AMARE,[8]; 500 g ai/ha,100
same,phytotoxicity rating CASOB,[9]; 125 g ai/ha,100
same,phytotoxicity rating CASOB,[9]; 500 g ai/ha,100
same,phytotoxicity rating ABUTH,[10]; 125 g ai/ha,100
same,phytotoxicity rating ABUTH,[10]; 500 g ai/ha,100
same,crop damage rating CORN,[11]; 125 g ai/ha,90
same,crop damage rating CORN,[11]; 500 g ai/ha,100
same,crop damage rating RICE,[12]; 125 g ai/ha,99
same,crop damage rating RICE,[12]; 500 g ai/ha,100
same,crop damage rating SOY,[13]; 125 g ai/ha,90
same,crop damage rating SOY,[13]; 500 g ai/ha,100
same,AMBEL phytotoxicity rating (0-100),[14]; 63 g al/ha,70
same,AMBEL phytotoxicity rating (0-100),[14]; 500 g al/ha,100
same,SORHA phytotoxicity rating (0-100),[15]; 63 g al/ha,80
same,SORHA phytotoxicity rating (0-100),[15]; 500 g al/ha,100
same,ECHCG phytotoxicity rating (0-100),[16]; 63 g al/ha,70
same,ECHCG phytotoxicity rating (0-100),[16]; 500 g al/ha,100
same,SETVI phytotoxicity rating (0-100),[17]; 63 g al/ha,95
same,SETVI phytotoxicity rating (0-100),[17]; 500 g al/ha,100
same,IPOHE phytotoxicity rating (0-100),[18]; 63 g al/ha,100
same,IPOHE phytotoxicity rating (0-100),[18]; 500 g al/ha,100
same,CHEAL phytotoxicity rating (0-100),[19]; 63 g al/ha,95
same,CHEAL phytotoxicity rating (0-100),[19]; 500 g al/ha,100
same,DIGSA phytotoxicity rating (0-100),[20]; 63 g al/ha,80
same,DIGSA phytotoxicity rating (0-100),[20]; 500 g al/ha,100
same,AMARE phytotoxicity rating (0-100),[21]; 63 g al/ha,95
same,AMARE phytotoxicity rating (0-100),[21]; 500 g al/ha,100
same,CASOB phytotoxicity rating (0-100),[22]; 63 g al/ha,90
same,CASOB phytotoxicity rating (0-100),[22]; 500 g al/ha,100
same,ABUTH phytotoxicity rating (0-100),[23]; 63 g al/ha,100
same,ABUTH phytotoxicity rating (0-100),[23]; 500 g al/ha,100
same,CORN crop damage rating (0-100),[24]; 63 g al/ha,25
same,CORN crop damage rating (0-100),[24]; 500 g al/ha,100
same,RICE crop damage rating (0-100),[25]; 63 g al/ha,70
same,RICE crop damage rating (0-100),[25]; 500 g al/ha,100
same,SOY crop damage rating (0-100),[26]; 63 g al/ha,100
same,SOY crop damage rating (0-100),[26]; 500 g al/ha,100
O=C1C2=CCCCN2C(=O)N1c1cc(Oc2ncccc2C(F)(F)F)c(Cl)cc1F [Compound 4-2],phytotoxicity rating SORHA,[1]; 500 g ai/ha,0
same,phytotoxicity rating ECHCG,[2]; 500 g ai/ha,0
same,phytotoxicity rating AMBEL,[3]; 500 g ai/ha,100
same,phytotoxicity rating SETVI,[4]; 500 g ai/ha,40
same,phytotoxicity rating IPOHE,[5]; 500 g ai/ha,0
same,phytotoxicity rating CHEAL,[6]; 500 g ai/ha,100
same,phytotoxicity rating DIGSA,[7]; 500 g ai/ha,0
same,phytotoxicity rating AMARE,[8]; 500 g ai/ha,100
same,phytotoxicity rating CASOB,[9]; 500 g ai/ha,0
same,phytotoxicity rating ABUTH,[10]; 500 g ai/ha,95
same,crop damage rating CORN,[11]; 500 g ai/ha,0
same,crop damage rating RICE,[12]; 500 g ai/ha,0
same,crop damage rating SOY,[13]; 500 g ai/ha,0
same,AMBEL phytotoxicity rating (0-100),[14]; 500 g al/ha,75
same,SORHA phytotoxicity rating (0-100),[15]; 500 g al/ha,0
same,ECHCG phytotoxicity rating (0-100),[16]; 500 g al/ha,0
same,SETVI phytotoxicity rating (0-100),[17]; 500 g al/ha,10
same,IPOHE phytotoxicity rating (0-100),[18]; 500 g al/ha,99
same,CHEAL phytotoxicity rating (0-100),[19]; 500 g al/ha,90
same,DIGSA phytotoxicity rating (0-100),[20]; 500 g al/ha,0
same,AMARE phytotoxicity rating (0-100),[21]; 500 g al/ha,100
same,CASOB phytotoxicity rating (0-100),[22]; 500 g al/ha,20
same,ABUTH phytotoxicity rating (0-100),[23]; 500 g al/ha,70
same,CORN crop damage rating (0-100),[24]; 500 g al/ha,5
same,RICE crop damage rating (0-100),[25]; 500 g al/ha,10
same,SOY crop damage rating (0-100),[26]; 500 g al/ha,30
